Test results as given in paper PMC3748009, “Novel Small-Molecule AMP-Activated Protein Kinase Allosteric Activator with Beneficial Effects in db/db Mice” (PLoS ONE, 2013).

Legend:
[1] = target: AMPK α1(1–335) (Homo sapiens, UniProt Q13131); assay: SPA, inactive α1 subunit truncation; assay type: biochemical; parameters: α1(1–394), α1(1–335), α1(1–312); made in house
Protocol: (§1) Before the SPA assay, 200 nmol/l recombinant AMPK protein (α1β1γ1, α2β1γ1, α1β2γ1, α2β2γ1, α1(1–394), α1(1–335), α1(1–312)) was constructed, expressed, purified and fully phosphorylated as described previously. The SPA reactions were performed in 96-well plates in a final volume of 50 µl containing 20 mmol/l Tris-HCl, pH 7.5, 5 mmol/l MgCl2, 1 mmol/l DTT, 2 µmol/l biotin-SAMS, 2 µmol/l ATP and 7.4×10^3 Bq/well [γ-^33P]ATP. The reactions were initiated by the addition of 50 nmol/l recombinant AMPK protein to the reaction solutions, followed by incubation at 30°C for 2 hr. The reactions were then terminated by the addition of 40 µl of stop solution containing 80 µg streptavidin-coated SPA beads per well, 50 mmol/l EDTA and 0.1% Triton X-100 in PBS, pH 7.5, followed by incubation for 1 hr. Finally, 160 µl of suspension solution containing 2.4 mol/l CsCl, 50 mmol/l EDTA and 0.1% Triton X-100 in PBS, pH 7.5, was added to the reaction solution to suspend the SPA beads completely. The SPA signals were measured in a Wallac Microbeta plate counter (PerkinElmer, Waltham, MA, USA) 30 min later.

[2] = target: AMPK α1(1–394) (Homo sapiens, UniProt Q13131); assay: SPA, inactive α1 subunit truncation; assay type: biochemical; parameters: α1(1–394), α1(1–335), α1(1–312); made in house
Protocol: as §1

[3] = target: T1, recombinant human AMPK α2β2γ1 (Homo sapiens, UniProt O43741+P54619+P54646); assay: Scintillation proximity assay (SPA), AMPK activation; assay type: biochemical
T1 construct: made in house
Protocol: as §1

[4] = target: T2, recombinant human AMPK α2β1γ1 (Homo sapiens, UniProt P54619+P54646); assay: as above; assay type: biochemical
T2 construct: made in house
Protocol: as §1

[5] = target: T3, recombinant human AMPK α2β2γ1 (Homo sapiens, UniProt P54646); assay: as above; assay type: biochemical
T3 construct: made in house
Protocol: as §1

[6] = target: T4, recombinant human AMPK α1β2γ1 (Homo sapiens, UniProt O43741+P54619+Q13131); assay: as above; assay type: biochemical
T4 construct: made in house
Protocol: as §1

[7] = target: T5, recombinant human AMPK α1β2γ1 (Homo sapiens, UniProt Q13131); assay: as above; assay type: biochemical
T5 construct: made in house
Protocol: as §1

[8] = test system: rat primary hepatocytes; assay: Gene expression (real-time PCR) in rat primary hepatocytes; assay type: cell-based
Description: This assay was described previously. For details on primer sequences, see Legend for Table S1.

[9] = test system: L6 myotubes; assay: Adenine nucleotide measurement (ADP/ATP ratio) in L6 myotubes; assay type: cell-based; details: various concentrations, 3 hr, vs DMSO
Description: (§2) These assays were described previously, [25].

[10] = test system: HeLa cells; assay: AMPK and ACC phosphorylation in HeLa cells deficient in LKB1; assay type: cell-based
Description: as §2

[11] = target: T6, Recombinant human protein phosphatase-2Cα (PP2Cα) (Homo sapiens, UniProt P35813); assay: PP2Cα activity with pNPP as substrate; assay type: biochemical; details: varying concentrations of ZLN024
T6 construct: purchased Abcam (Cambridge, UK)
T6 sequence (P35813 1-382): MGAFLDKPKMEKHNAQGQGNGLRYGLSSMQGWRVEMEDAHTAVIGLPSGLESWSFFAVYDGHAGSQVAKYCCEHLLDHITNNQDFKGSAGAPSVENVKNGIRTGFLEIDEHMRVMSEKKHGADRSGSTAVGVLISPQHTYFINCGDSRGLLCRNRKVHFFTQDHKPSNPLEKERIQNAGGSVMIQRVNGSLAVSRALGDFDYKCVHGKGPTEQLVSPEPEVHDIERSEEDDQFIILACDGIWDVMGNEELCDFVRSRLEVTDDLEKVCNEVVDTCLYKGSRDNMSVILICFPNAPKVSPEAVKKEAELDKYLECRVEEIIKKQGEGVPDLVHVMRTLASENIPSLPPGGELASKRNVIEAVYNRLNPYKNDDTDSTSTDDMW
Protocol: Recombinant human protein phosphatase-2Cα (PP2Cα) was obtained from Abcam (Cambridge, UK). PP2Cα activity was measured using pNPP as a substrate. The activity was measured in a SpectraMAX 340 plate reader at 37°C and […] for 120 sec. The assay was carried out in a 96-well plate in a final volume of 100 µl containing 50 mmol/l Tris-HCl, pH 7.6, 2 mmol/l DTT, 10 mmol/l MnCl2 and 10 mmol/l pNPP; the PP2Cα enzyme concentration was 400nmol/l.

[12] = test system: L6 myotubes; assay: Fatty acid (palmitate) oxidation in L6 myotubes; assay type: cell-based; details: 4 hr treatment
Protocol: The assay was initiated by adding [9,10-^3H(N)]-palmitic acid (PerkinElmer, Waltham, MA, USA) to a final concentration of 250 µmol/l and 5.55×10^4 Bq per well in DMEM. After incubation with the compound for 4 hr in differentiated L6 myotubes, sample from each well was added to charcoal slurry for centrifugation and then the radioactivity was measured.

[13] = test system: rat primary hepatocytes; assay: ADP/ATP ratio in rat primary hepatocytes; assay type: cell-based; details: 3 hr
Description: as §2

[14] = target: AMPK α2β1γ1 (Homo sapiens, UniProt P54619+P54646+Q9Y478); assay: PP2Cα-catalyzed dephosphorylation of AMPK Thr-172; assay type: biochemical; details: 5 µmol/l ZLN024
Protocol: (§3) The dephosphorylation of AMPK was performed as described previously, [24].

[15] = target: AMPK α1β1γ1 (Homo sapiens, UniProt P54619+Q13131+Q9Y478); assay: PP2Cα-catalyzed dephosphorylation of AMPK Thr-172; assay type: biochemical; details: 5 µmol/l ZLN024
Protocol: as §3

[16] = test system: L6 myotubes; assay: AMPK and ACC phosphorylation (Western blot) in L6 myotubes; assay type: cell-based
Description: as §2

[17] = target: T7, human AMPK α1(1–312) (Homo sapiens, UniProt Q13131); assay: SPA, constitutively active kinase domain; assay type: biochemical; details: various concentrations
T7 construct: the constitutively active kinase domain (KD) α1(1–312) in SPA assay; made in house
Protocol: as §1

[18] = primary hepatocytes, 21 hr incubation

T2 sequence (P54646 whole entry): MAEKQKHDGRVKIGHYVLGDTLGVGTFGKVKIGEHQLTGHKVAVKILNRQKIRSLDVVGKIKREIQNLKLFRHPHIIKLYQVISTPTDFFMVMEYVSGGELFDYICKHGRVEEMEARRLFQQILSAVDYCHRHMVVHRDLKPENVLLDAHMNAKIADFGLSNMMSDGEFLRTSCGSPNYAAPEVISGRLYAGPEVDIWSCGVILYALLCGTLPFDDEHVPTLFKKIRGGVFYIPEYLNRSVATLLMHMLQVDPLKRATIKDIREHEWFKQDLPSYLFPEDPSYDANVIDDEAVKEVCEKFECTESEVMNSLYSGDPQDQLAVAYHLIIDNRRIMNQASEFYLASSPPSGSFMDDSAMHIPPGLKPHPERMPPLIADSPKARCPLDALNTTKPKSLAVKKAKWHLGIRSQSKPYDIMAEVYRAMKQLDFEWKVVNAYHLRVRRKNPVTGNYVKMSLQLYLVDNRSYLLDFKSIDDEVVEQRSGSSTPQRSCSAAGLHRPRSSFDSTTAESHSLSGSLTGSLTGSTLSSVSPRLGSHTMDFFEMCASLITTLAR
T2 sequence (Q9Y478 whole entry partner): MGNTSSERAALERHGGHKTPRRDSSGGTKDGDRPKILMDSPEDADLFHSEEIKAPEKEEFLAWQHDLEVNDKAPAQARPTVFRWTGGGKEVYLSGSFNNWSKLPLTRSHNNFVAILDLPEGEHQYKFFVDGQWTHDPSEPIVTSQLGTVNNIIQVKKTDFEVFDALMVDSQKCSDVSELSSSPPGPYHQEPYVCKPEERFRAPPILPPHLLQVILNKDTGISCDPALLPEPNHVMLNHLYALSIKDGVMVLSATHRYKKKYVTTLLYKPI
T2 sequence (P54619 whole entry): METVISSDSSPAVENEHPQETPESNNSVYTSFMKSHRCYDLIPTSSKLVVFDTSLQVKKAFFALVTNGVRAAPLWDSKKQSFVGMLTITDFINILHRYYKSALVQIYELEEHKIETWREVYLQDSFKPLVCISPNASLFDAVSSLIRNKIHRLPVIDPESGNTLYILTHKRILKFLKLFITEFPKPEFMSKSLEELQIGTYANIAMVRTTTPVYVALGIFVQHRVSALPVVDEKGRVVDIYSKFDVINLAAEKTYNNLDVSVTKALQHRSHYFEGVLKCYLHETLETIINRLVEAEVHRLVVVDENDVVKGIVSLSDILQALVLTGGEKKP
Sequence of AMPK α1(1–394) (Q13131 10-403): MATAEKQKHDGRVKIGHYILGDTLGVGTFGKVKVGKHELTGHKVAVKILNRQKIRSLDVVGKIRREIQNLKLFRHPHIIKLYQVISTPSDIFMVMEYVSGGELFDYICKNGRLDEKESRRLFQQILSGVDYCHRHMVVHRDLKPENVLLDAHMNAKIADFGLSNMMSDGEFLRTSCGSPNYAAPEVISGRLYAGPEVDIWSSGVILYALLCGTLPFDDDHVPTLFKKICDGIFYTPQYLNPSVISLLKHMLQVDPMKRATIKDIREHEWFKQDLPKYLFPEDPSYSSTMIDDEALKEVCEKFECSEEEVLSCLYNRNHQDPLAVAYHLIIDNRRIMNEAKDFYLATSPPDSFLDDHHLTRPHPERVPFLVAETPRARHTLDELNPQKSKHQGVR
Sequence of AMPK α1(1–335) (Q13131 10-344): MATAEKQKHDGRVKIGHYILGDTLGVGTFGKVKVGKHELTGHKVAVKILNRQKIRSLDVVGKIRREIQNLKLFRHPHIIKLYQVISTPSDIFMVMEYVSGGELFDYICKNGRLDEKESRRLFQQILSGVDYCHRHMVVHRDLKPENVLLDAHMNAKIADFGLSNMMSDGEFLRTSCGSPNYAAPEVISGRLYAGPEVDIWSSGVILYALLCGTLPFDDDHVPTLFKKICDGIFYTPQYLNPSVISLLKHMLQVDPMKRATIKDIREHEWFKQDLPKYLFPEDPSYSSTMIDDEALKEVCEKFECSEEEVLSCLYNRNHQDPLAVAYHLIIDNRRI
T4 sequence (Q13131 10-559 limits assumed): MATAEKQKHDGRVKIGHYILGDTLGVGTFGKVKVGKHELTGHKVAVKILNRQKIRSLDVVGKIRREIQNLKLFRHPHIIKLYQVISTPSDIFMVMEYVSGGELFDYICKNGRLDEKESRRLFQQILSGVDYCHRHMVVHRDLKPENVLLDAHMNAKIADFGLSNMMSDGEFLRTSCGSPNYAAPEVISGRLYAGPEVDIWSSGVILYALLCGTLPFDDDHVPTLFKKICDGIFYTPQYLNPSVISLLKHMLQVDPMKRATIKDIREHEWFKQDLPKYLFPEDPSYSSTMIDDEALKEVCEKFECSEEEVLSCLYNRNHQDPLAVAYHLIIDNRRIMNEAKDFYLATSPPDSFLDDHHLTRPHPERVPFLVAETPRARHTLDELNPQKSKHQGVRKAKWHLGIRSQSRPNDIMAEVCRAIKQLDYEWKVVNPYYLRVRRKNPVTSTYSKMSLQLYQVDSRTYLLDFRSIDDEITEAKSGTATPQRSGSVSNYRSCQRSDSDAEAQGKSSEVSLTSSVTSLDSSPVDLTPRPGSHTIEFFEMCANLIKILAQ
T4 sequence (O43741 whole entry partner): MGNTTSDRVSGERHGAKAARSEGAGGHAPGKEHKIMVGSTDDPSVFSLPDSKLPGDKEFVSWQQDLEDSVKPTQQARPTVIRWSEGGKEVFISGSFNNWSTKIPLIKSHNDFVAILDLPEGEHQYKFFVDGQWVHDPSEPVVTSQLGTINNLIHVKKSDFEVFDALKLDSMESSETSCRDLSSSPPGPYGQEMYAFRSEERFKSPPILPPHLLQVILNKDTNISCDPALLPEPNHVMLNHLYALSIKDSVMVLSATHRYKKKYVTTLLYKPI
T4 sequence (P54619 whole entry partner): as the sequence (P54619 whole entry) above
T5 sequence (Q13131 10-559 limits assumed): as the sequence (Q13131 10-559 limits assumed) above
T5 sequence (O43741 whole entry partner): as the sequence (O43741 whole entry partner) above
T5 sequence (P54619 whole entry partner): as the sequence (P54619 whole entry) above
Sequence of AMPK α1β1γ1 (Q13131 10-559 limits assumed): as the sequence (Q13131 10-559 limits assumed) above
Sequence of AMPK α1β1γ1 (Q9Y478 whole entry): as the sequence (Q9Y478 whole entry partner) above
Sequence of AMPK α1β1γ1 (P54619 whole entry): as the sequence (P54619 whole entry) above
T7 sequence (Q13131 10-321): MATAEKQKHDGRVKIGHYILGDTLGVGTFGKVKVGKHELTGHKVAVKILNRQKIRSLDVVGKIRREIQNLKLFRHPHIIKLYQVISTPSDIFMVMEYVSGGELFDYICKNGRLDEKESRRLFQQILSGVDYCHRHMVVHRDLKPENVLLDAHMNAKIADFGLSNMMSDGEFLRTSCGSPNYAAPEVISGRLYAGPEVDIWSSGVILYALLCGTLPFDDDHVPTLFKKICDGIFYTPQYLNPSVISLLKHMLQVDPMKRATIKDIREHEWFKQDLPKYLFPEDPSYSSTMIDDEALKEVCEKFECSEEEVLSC
Sequence of AMPK α2β1γ1 (P54646 whole entry): as the sequence (P54646 whole entry) above
Sequence of AMPK α2β1γ1 (Q9Y478 whole entry): as the sequence (Q9Y478 whole entry partner) above
Sequence of AMPK α2β1γ1 (P54619 whole entry): as the sequence (P54619 whole entry) above
T3 sequence (P54646 whole entry): as the sequence (P54646 whole entry) above
T3 sequence (O43741 whole entry partner): as the sequence (O43741 whole entry partner) above
T3 sequence (P54619 whole entry partner): as the sequence (P54619 whole entry) above
T1 sequence (P54646 whole entry): as the sequence (P54646 whole entry) above
T1 sequence (O43741 whole entry partner): as the sequence (O43741 whole entry partner) above
T1 sequence (P54619 whole entry partner): as the sequence (P54619 whole entry) above

maximal activation of α1(1–335) [1]: 2.8 fold
EC50 ([1]; read-out: EC50, activation of α1(1–335)): 2230 nM
maximal activation of α1(1–394) [2]: 2.3 fold
EC50 ([2]; read-out: EC50, activation of α1(1–394)): 920 nM
EC50 [3]: 130 nM
EC50 ([4]; SPA): 950 nM
activation of α2β1γ1 activity ([4]; SPA): 1.7 fold
additional activation of AMPK α2β1γ1 ([4]; ZLN024 increased to 10 µmol/l in the presence of saturating AMP (12.5 µmol/l)): 1.3 fold
activation of α2β2γ1 activity [5]: 1.6 fold
EC50 [6]: 1100 nM
activation of α1β2γ1 activity [7]: 1.7 fold
mRNA level of G6Pase [8, 18]: decreased significantly
effect on PP2Cα activity [11]: no significant inhibition
effect on activity of constitutively active kinase domain α1(1–312) [17]: did not induce significant changes
SMILES: Cc1ccc(OCCSc2ncccn2)c(Br)c1 [ZLN024]
mRNA level of PEPCK [8, 18]: decreased significantly
gene expression of fatty acid synthase (FAS) ([8]; rat primary hepatocytes, 21 hr): significantly decreased
ADP/ATP ratio [9]: not affected
phosphorylation of AMPK and ACC ([10]; 3 hr, concentration-dependent): stimulated
time to peak of AMPK and ACC phosphorylation ([10]; ZLN024 20 µmol/l): ≤ 30 min
time to start of increase of AMPK and ACC phosphorylation ([10]; ZLN024 20 µmol/l): ≤ 15 min
stimulation of palmitate oxidation [12]: 40%
ADP/ATP ratio [13]: not affected
protection of AMPK α2β1γ1 against dephosphorylation by PP2Cα [14]: provided protection against dephosphorylation
protection of AMPK α1β1γ1 against dephosphorylation by PP2Cα [15]: provided protection against dephosphorylation
phosphorylation of AMPK and ACC ([16]; 3 hr incubation, concentration-dependent): stimulated
time to maximal effect on AMPK and ACC phosphorylation ([16]; ZLN024 20 µmol/l): ≤ 30 min
time to start of increase of AMPK and ACC phosphorylation ([16]; ZLN024 20 µmol/l): ≤ 15 min
